Tested on: rat carrageenan edema model
Assay: Carrageenan edema in the rat (paw swelling)
Format: in vivo
Protocol: Carrageenan edema in the rat: The effects of COMPOUND A are investigated in the carrageenan edema model. In this model an acute paw swelling is induced by the sub-plantar injection of carrageenan. The paw swelling has a duration of approximately 8 hours and is completely resolved at 24 hours. The model is used to assess anti-inflammatory activities of new therapeutics and is also sensitive to drugs such as COX-inhibitors like Diclofenac, which is used as a positive control compound in the model.
Method: Male OFA rats (5 animals/group) are treated orally with COMPOUND A (1, 3 and 9 mg/kg), Diclofenac (3 mg/kg) or vehicle (placebo formulation). One hour later (0 hours) the rats receive a 100 μl intra-plantar injection of a 1% w/v carrageenan solution in 0.9% saline in the hind paw and the diameter of the paw is measured by means of a micro-caliper. The paw diameter measurements are repeated 3 and 5 hours after injection of the carrageenan. Percentage inhibition of paw swelling at 3 and 5 hours is calculated by reference to vehicle treated animals (0% inhibition).
Edema is induced by a sub-plantar injection of carrageenan in the paw of the rat. Paw diameters are measured at the time of carrageenan injection (0 hours) and at 3 and 5 hours. Compounds are administered 1 hour before the carrageenan injection. COMPOUND A was dosed at 1, 3 and 9 mg/kg p.o. and Diclofenac at 3 mg/kg p.o.

SMILES: COC1=Nc2cc(Cl)ccc2/C(=C/C(=O)O)c2sc(Cl)cc21 [COMPOUND A, [2,7-Dichloro-10-methoxy-3-thia-9-aza-benzo[f]azulen-(4Z)-ylidene]-acetic acid]
- % inhibition of paw swelling (1 mg/kg p.o., 3 hrs after carrageenan): 58%
- % inhibition of paw swelling (1 mg/kg p.o., 5 hrs after carrageenan): 65%
- % inhibition of paw swelling (3 mg/kg p.o., 3 hrs after carrageenan): 67%
- % inhibition of paw swelling (3 mg/kg p.o., 5 hrs after carrageenan): 48%
- % inhibition of paw swelling (9 mg/kg p.o., 3 hrs after carrageenan): 88%
- % inhibition of paw swelling (9 mg/kg p.o., 5 hrs after carrageenan): 74%
- inhibition in the carrageenan edema model (in words) (after 3 and 5 hours, dose of 1 to 9 mg/kg): dose-related inhibition

— US8258128B2, “Organic compounds” (Novartis AG, priority 2006, dated 2012)
